{"source": "patent US9303064B2", "about": "“Peptide inhibiting matrix metalloproteanases activity and use thereof” (CAREGEN CO., LTD., priority 2011, dated 2016)", "test_system": "Hyaluronate lyase", "experiment": "Filler product injected into rat dorsal skin", "assay_type": "in vivo", "conditions": "1-7 days, FIG. 6e", "experimental": "FIG. 6e represents effects on residence times of filler products when the filler product containing hyaluronate lyase and the peptide (SEQ ID NO:2) is injected to rat dorsal skin. The effects were determined at intervals of 1-7 days.\nHyaluronate lyase was artificially put into a commercial filler product at a concentration of 100 ug to induce degradation of hyaluronic acids, and then 200 ug peptides were treated. […] An assay using GPC column and an in vivo experiment using rats are performed. Control group was treated with hyaluronate lyase, and treatment group was co-treated hyaluronate lyase and each peptide. When the filler product was injected into rat skin, the degradation of hyaluronic acids inside the filler was inhibited by the treatment of peptides (FIG. 6e).", "data": [{"sequence": "MIPCYISSP (CG-Seperin) [SEQ ID NO:2]", "values": [{"measurement": "degradation of hyaluronic acids inside the filler injected into rat skin", "setting": "filler with hyaluronate lyase and peptide", "value": "hyaluronic acids degradation effect is excellent"}, {"measurement": "residence times of filler products", "setting": "versus only filler products", "value": "stayed for longer period"}]}]}
